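Cultured in 96-well plates, cells were exposed to test compound for 48 hours across five concentrations. GI50 is the concentration that inhibits growth by half. TGI: total growth inhibition.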
Experiments:
Assay in all cases: inhibition of tumour cell growth, NCI panel, 48 h
RPMI-8226 leukemia = tested on: RPMI-8226 leukemia
SK-MEL-5 melanoma = tested on: SK-MEL-5 melanoma
HCT-15 colon = tested on: HCT-15 colon
RXF 393 renal = tested on: RXF 393 renal
UACC-257 melanoma = tested on: UACC-257 melanoma
CAKI-1 renal = tested on: CAKI-1 renal
NCI-H226 lung = tested on: NCI-H226 lung
SNB-75 CNS = tested on: SNB-75 CNS
NCI-H460 lung = tested on: NCI-H460 lung
A498 renal = tested on: A498 renal

## Cc1ncc([N+](=O)[O-])n1CCNC(=O)CCCn1cnc([N+](=O)[O-])n1
RPMI-8226 leukemia
  TGI: > 100 µM
SK-MEL-5 melanoma
  TGI: > 100 µM
HCT-15 colon
  TGI: > 100 µM
RXF 393 renal
  TGI: > 100 µM
UACC-257 melanoma
  TGI: > 100 µM
CAKI-1 renal
  TGI: > 100 µM
NCI-H226 lung
  TGI: > 100 µM
SNB-75 CNS
  TGI: > 100 µM
NCI-H460 lung
  TGI: > 100 µM
A498 renal
  TGI: > 100 µM

## COc1ccc(/C=C2\CCCC3=C2NC(C)=NC3c2ccc(OC)c(OC)c2)cc1OC (stereo not given)
RPMI-8226 leukemia
  GI50: 0.848 µM
  TGI: 56.3 µM
SK-MEL-5 melanoma
  GI50: 9.43 µM
  TGI: > 100 µM
HCT-15 colon
  GI50: 3.52 µM
  TGI: > 100 µM
RXF 393 renal
  GI50: 4.02 µM
  TGI: 16.3 µM
UACC-257 melanoma
  GI50: 10.9 µM
  TGI: > 100 µM
CAKI-1 renal
  GI50: 21.4 µM
  TGI: > 100 µM
NCI-H226 lung
  GI50: 12.2 µM
  TGI: 99.8 µM
SNB-75 CNS
  GI50: 32 µM
  TGI: > 100 µM
NCI-H460 lung
  GI50: 47.7 µM
  TGI: > 100 µM
A498 renal
  GI50: 16.4 µM
  TGI: > 100 µM

## COc1cnc2c(c1)C(=O)c1c-2n(CCCN2CCCC2)c(=O)c2cc(Cl)ccc12
RPMI-8226 leukemia
  GI50: 5.26 µM
  TGI: 16.3 µM
SK-MEL-5 melanoma
  GI50: 2.54 µM
  TGI: 9.48 µM
HCT-15 colon
  GI50: 1.73 µM
  TGI: 10.3 µM
RXF 393 renal
  GI50: 0.705 µM
  TGI: 5.82 µM
UACC-257 melanoma
  GI50: 7.85 µM
  TGI: 21.6 µM
CAKI-1 renal
  GI50: 0.034 µM
  TGI: 8.18 µM
NCI-H226 lung
  GI50: 3.27 µM
  TGI: 14.4 µM
SNB-75 CNS
  GI50: 0.347 µM
  TGI: 7.79 µM
NCI-H460 lung
  GI50: 0.0217 µM
  TGI: 5.51 µM
A498 renal
  GI50: 0.384 µM
  TGI: 6.01 µM

## COC(=O)[C@@H]1CCCN1C(=O)[C@@H]1CCCN1C(=O)[C@@H](Cc1c[nH]c2ccccc12)NC(=S)Nc1cc(C(F)(F)F)cc(C(F)(F)F)c1
RPMI-8226 leukemia
  GI50: 3.34 µM
  TGI: > 100 µM
SK-MEL-5 melanoma
  GI50: 2.13 µM
  TGI: 5.52 µM
HCT-15 colon
  GI50: 4.87 µM
  TGI: > 100 µM
RXF 393 renal
  GI50: 2.14 µM
  TGI: 5.89 µM
UACC-257 melanoma
  GI50: 4.06 µM
  TGI: 35.3 µM
CAKI-1 renal
  GI50: 16.9 µM
  TGI: > 100 µM
NCI-H226 lung
  GI50: 7.74 µM
  TGI: > 100 µM
SNB-75 CNS
  GI50: 1.91 µM
  TGI: > 100 µM
NCI-H460 lung
  GI50: 4.77 µM
  TGI: > 100 µM
A498 renal
  GI50: 11.1 µM
  TGI: 98.2 µM

## O=C1CC2C(=O)N(Cc3ccccc3)C1C(S(=O)(=O)c1ccccc1)C2S(=O)(=O)c1ccccc1 (stereo not given)
RPMI-8226 leukemia
  TGI: 18.4 µM
SK-MEL-5 melanoma
  TGI: 29.2 µM
HCT-15 colon
  TGI: 2.91 µM
RXF 393 renal
  TGI: 3.5 µM
UACC-257 melanoma
  TGI: 3.25 µM
CAKI-1 renal
  TGI: 1.85 µM
NCI-H226 lung
  TGI: 27.8 µM
SNB-75 CNS
  TGI: 21.2 µM
NCI-H460 lung
  TGI: 34.9 µM
A498 renal
  TGI: 32.2 µM

## CCC1CN2CCc3cc(OC)c(OC)cc3C2CC1CC1c2cc(OC)c(OC)cc2CCN1C(=O)CNC(=O)OC(C)(C)C (stereo not given)
RPMI-8226 leukemia
  TGI: 48.6 µM
SK-MEL-5 melanoma
  TGI: 21 µM
HCT-15 colon
  TGI: 68.7 µM
RXF 393 renal
  TGI: 51.2 µM
UACC-257 melanoma
  TGI: 60 µM
CAKI-1 renal
  TGI: 65.1 µM
NCI-H226 lung
  TGI: 53 µM
SNB-75 CNS
  TGI: 73.1 µM
NCI-H460 lung
  TGI: 46.4 µM
A498 renal
  TGI: 56.2 µM

## COc1ccc2c(c1)nc(N)c1c3cccnc3cn21
RPMI-8226 leukemia
  GI50: 0.0546 µM
  TGI: 34.2 µM
SK-MEL-5 melanoma
  GI50: 0.0322 µM
  TGI: 0.836 µM
HCT-15 colon
  GI50: 0.0456 µM
  TGI: 33.7 µM
RXF 393 renal
  GI50: 0.0224 µM
  TGI: 0.0777 µM
UACC-257 melanoma
  GI50: 0.064 µM
  TGI: 26.7 µM
CAKI-1 renal
  GI50: 0.0407 µM
  TGI: 16.3 µM
NCI-H226 lung
  GI50: 0.737 µM
  TGI: 27 µM
SNB-75 CNS
  GI50: 0.06 µM
  TGI: > 100 µM
NCI-H460 lung
  GI50: 0.0923 µM
  TGI: 1.77 µM
A498 renal
  GI50: 0.0339 µM
  TGI: 3.04 µM

## O=[N+]([O-])c1ccc(CS(=O)Cc2ccccc2)cc1 (stereo not given)
RPMI-8226 leukemia
  TGI: > 100 µM
SK-MEL-5 melanoma
  TGI: > 100 µM
HCT-15 colon
  TGI: > 100 µM
RXF 393 renal
  TGI: > 100 µM
UACC-257 melanoma
  TGI: > 100 µM
CAKI-1 renal
  TGI: > 100 µM
NCI-H226 lung
  TGI: > 100 µM
SNB-75 CNS
  TGI: > 100 µM
NCI-H460 lung
  TGI: > 100 µM
A498 renal
  TGI: > 100 µM

## C=C(C)CCC(C)N1CCC(N2CCC(C(=O)NCCc3ccccc3)CC2)CC1 (stereo not given)
RPMI-8226 leukemia
  GI50: 10.1 µM
  TGI: > 100 µM
SK-MEL-5 melanoma
  GI50: 4.2 µM
  TGI: 16.8 µM
HCT-15 colon
  GI50: 16.7 µM
  TGI: 57.6 µM
RXF 393 renal
  GI50: 14.8 µM
  TGI: 43 µM
UACC-257 melanoma
  GI50: 13.5 µM
  TGI: 30.5 µM
CAKI-1 renal
  GI50: 17.3 µM
  TGI: 75.4 µM
NCI-H226 lung
  GI50: 96.6 µM
  TGI: > 100 µM
SNB-75 CNS
  GI50: 14.1 µM
  TGI: 44.6 µM
NCI-H460 lung
  GI50: 37.8 µM
  TGI: > 100 µM
A498 renal
  GI50: 4.55 µM
  TGI: 44.4 µM

## C=C[C@]1(C)C=C2C(=O)[C@@]3(O)OC[C@@]4(CCCC(C)(C)C43O)C2(O)C(O)C1 (stereo not given in full)
RPMI-8226 leukemia
  GI50: 21 µM
  TGI: > 100 µM
SK-MEL-5 melanoma
  GI50: 14.5 µM
  TGI: 27.8 µM
HCT-15 colon
  GI50: 3.04 µM
  TGI: 9.21 µM
RXF 393 renal
  GI50: 1.62 µM
  TGI: 3.48 µM
UACC-257 melanoma
  GI50: 2.06 µM
  TGI: 4.21 µM
CAKI-1 renal
  GI50: 2.38 µM
  TGI: 7.71 µM
NCI-H226 lung
  GI50: 5.43 µM
  TGI: 12.1 µM
SNB-75 CNS
  GI50: 3.51 µM
  TGI: 14 µM
NCI-H460 lung
  GI50: 12.5 µM
  TGI: 28.2 µM
A498 renal
  GI50: 12.8 µM
  TGI: 25.6 µM

## O=C(Cc1ccccc1)N/N=C(\C1=Nc2ccc([N+](=O)[O-])cc2NC1O)C(O)c1ccc([N+](=O)[O-])cc1 (stereo not given)
RPMI-8226 leukemia
  TGI: > 100 µM
SK-MEL-5 melanoma
  TGI: > 100 µM
HCT-15 colon
  TGI: > 100 µM
RXF 393 renal
  TGI: > 100 µM
UACC-257 melanoma
  TGI: > 100 µM
CAKI-1 renal
  TGI: > 100 µM
NCI-H226 lung
  TGI: > 100 µM
SNB-75 CNS
  TGI: > 100 µM
NCI-H460 lung
  TGI: > 100 µM
A498 renal
  TGI: > 100 µM

## Clc1ccc2nc(Oc3ccccc3)cnc2c1
RPMI-8226 leukemia
  GI50: > 100 µM
  TGI: > 100 µM
SK-MEL-5 melanoma
  GI50: > 100 µM
  TGI: > 100 µM
HCT-15 colon
  GI50: > 100 µM
  TGI: > 100 µM
RXF 393 renal
  GI50: > 100 µM
  TGI: > 100 µM
UACC-257 melanoma
  GI50: > 100 µM
  TGI: > 100 µM
CAKI-1 renal
  GI50: > 100 µM
  TGI: > 100 µM
NCI-H226 lung
  GI50: > 100 µM
  TGI: > 100 µM
SNB-75 CNS
  GI50: 59 µM
  TGI: > 100 µM
NCI-H460 lung
  GI50: > 100 µM
  TGI: > 100 µM
A498 renal
  GI50: 8.84 µM
  TGI: > 100 µM

Reference: PubChem BioAssay (NCI)
